Legend:
Experiment in all cases: combination Emax (second highest fraction inhibited in the dose matrix, 72 h); higher = more inhibition; extreme values may be limits of the assay
[1] = test system: KNS-62 (Squamous Cell Lung Carcinoma)
Outline: (§1)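 After 24 hours at 37°C and 5% CO2 in 1536-well plates, cells in DMEM/F12 or RPMI plus 10% FBS received two-drug dose matrices for 72 hours. Viability came from CellTiter-Glo 2.0 luminescence and was scaled as inhibition, anchored at 0 by vehicle wells and at 1 by blank wells. Combination Emax is taken as the second-highest inhibition in the matrix, and Bliss excess as the observed combination effect less EA + EB − EA·EB, with EA and EB the single-agent effects.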

[2] = test system: BC-1 (B-Cell Non-Hodgkin's Lymphoma)
Outline: as §1

A375 (Melanoma) = test system: A375 (Melanoma)
Outline: as §1

[3] = test system: L-363 (Plasma Cell Myeloma)
Outline: as §1

[4] = test system: COR-L105 (Lung Adenocarcinoma)
Outline: as §1

GCIY (Gastric Carcinoma) = test system: GCIY (Gastric Carcinoma)
Outline: as §1

[5] = test system: OVKATE (Ovarian Carcinoma)
Outline: as §1

MG-63 (Osteosarcoma) = test system: MG-63 (Osteosarcoma)
Outline: as §1

[6] = test system: NCI-H1435 (Non-Small Cell Lung Carcinoma)
Outline: as §1

[7] = test system: MRK-nu-1 (Breast Carcinoma)
Outline: as §1

[8] = test system: MDA-MB-175-VII (Breast Carcinoma)
Outline: as §1

C32 (Melanoma) = test system: C32 (Melanoma)
Outline: as §1

[9] = test system: SW1463 (Colorectal Carcinoma)
Outline: as §1

[10] = test system: CAL-85-1 (Breast Carcinoma)
Outline: as §1

SK-MEL-24 (Melanoma) = test system: SK-MEL-24 (Melanoma)
Outline: as §1

[11] = test system: SBC-3 (Small Cell Lung Carcinoma)
Outline: as §1

[12] = test system: NCI-H1648 (Lung Adenocarcinoma)
Outline: as §1

[13] = test system: NCI-H2009 (Lung Adenocarcinoma)
Outline: as §1

[14] = test system: RPMI-8402 (T-Lymphoblastic Leukemia)
Outline: as §1

NCI-H2452 (Mesothelioma) = test system: NCI-H2452 (Mesothelioma)
Outline: as §1

Row | Compound | combination Emax [1] | combination Emax [2] | combination Emax (A375 (Melanoma)) | combination Emax [3] | combination Emax [4] | combination Emax (GCIY (Gastric Carcinoma)) | combination Emax [5] | combination Emax (MG-63 (Osteosarcoma)) | combination Emax [6] | combination Emax [7] | combination Emax [8] | combination Emax (C32 (Melanoma)) | combination Emax [9] | combination Emax [10] | combination Emax (SK-MEL-24 (Melanoma)) | combination Emax [11] | combination Emax [12] | combination Emax [13] | combination Emax [14] | combination Emax (NCI-H2452 (Mesothelioma))
1 | Cc1cc2ncnn2cc1Nc1ncc2c(n1)n(C1CCOCC1)c(=O)n2C [AZD7648] + COc1cc([C@@H]2c3cc4c(cc3[C@@H](O[C@@H]3O[C@@H]5CO[C@@H](C)O[C@H]5[C@H](O)[C@H]3O)[C@H]3COC(=O)[C@H]23)OCO4)cc(OC)c1O [Etoposide] (first compound max 10 µM, 7x7, partner max 10 µM) | 0.456 | 0.984 | 0.901 | 0.702 | 0.338 | 0.759 | 0.266 | 0.874 | 0.286 | 0.726 | 0.399 | 0.526 | 0.371 | 0.629 | 0.677 | 0.94 | 0.424 | 0.824 | 1 | 0.355
2 | Cc1cc2ncnn2cc1Nc1ncc2c(n1)n(C1CCOCC1)c(=O)n2C [AZD7648] + C[C@@H]1COCCN1C2=NC(=NC(=C2)C3(CC3)[S@](=N)(=O)C)C4=C5C=CNC5=NC=C4 [AZD6738] (first compound max 10 µM, 7x7, partner max 10 µM) | 0.526 | 0.941 | 0.687 | 0.849 | 0.531 | 0.774 | 0.377 | 0.503 | 0.217 | 0.633 | 0.341 | 0.649 | 0.543 | 0.594 | 0.509 | 0.71 | 0.779 | 0.339 | 0.988 | 0.525
3 | Cc1cc2ncnn2cc1Nc1ncc2c(n1)n(C1CCOCC1)c(=O)n2C [AZD7648] + O=C(c1cc(Cc2n[nH]c(=O)c3ccccc23)ccc1F)N1CCN(C(=O)C2CC2)CC1 [Olaparib] (first compound max 10 µM, 7x7, partner max 10 µM) | 0.149 | 0.385 | 0.234 | 0.231 | 0.222 | 0.342 | 0.148 | 0.53 | 0.149 | 0.387 | 0.142 | 0.0555 | 0.0764 | 0.337 | 0.211 | 0.451 | 0.328 | 0.137 | 0.561 | 0.266
4 | Cc1nc(Nc2ncc(C(=O)Nc3c(C)cccc3Cl)s2)cc(N2CCN(CCO)CC2)n1 [Dasatinib] + CC(=O)Nc1cccc(-n2c(=O)n(C3CC3)c(=O)c3c(Nc4ccc(I)cc4F)n(C)c(=O)c(C)c32)c1 [Trametinib] (first compound max 2 µM, 7x7, partner max 1 µM) | 0.564 | 0.418 | 0.794 | 0.146 | 0.806 | 0.83 | 0.484 | 0.734 | 0.42 | 0.254 | 0.513 | 0.984 | 0.786 | 0.853 | 0.815 | 0.528 | 0.876 | 0.916 | 0.307 | 0.804
5 | COc1cc2ncnc(Nc3ccc(F)c(Cl)c3)c2cc1OCCCN1CCOCC1 [Gefitinib] + CC(C)n1c(=O)n(C)c2cnc3cc(F)c(-c4ccc(OCCCN5CCCCC5)nc4)cc3c21 [AZD1390] (first compound max 10 µM, 7x7, partner max 0.3 µM) | 0.0888 | 0.601 | 0.0854 | 0.148 | 0.619 | 0.459 | 0.155 | 0.202 | 0.114 | 0.443 | 0.93 | 0.114 | 0.728 | 0.466 | 0.246 | 0.107 | 0.646 | 0.119 | 0.56 | 0.306
6 | COc1cc2c(cc1OCCCCCOc1cc3c(cc1OC)C(=O)N1C=C(C)C[C@H]1C=N3)N=C[C@@H]1CC(C)=CN1C2=O [SG3199] + O=C(c1cc(Cc2n[nH]c(=O)c3ccccc23)ccc1F)N1CCN(C(=O)C2CC2)CC1 [Olaparib] (first compound max 0.001 µM, 7x7, partner max 10 µM) | 0.0885 | 0.181 | 0.209 | 0.0669 | 0.0843 | 0.258 | 0.0519 | 0.198 | 0.107 | 0.223 | 0.0059 | 0.0494 | 0.0306 | 0.188 | 0.129 | 0.478 | 0.129 | 0.144 | 0.435 | 0.155
7 | N#Cc1cnc(Nc2cc(NC[C@H]3CNCCO3)c(C(F)(F)F)cn2)cn1 [SRA737] + C=CCn1c(=O)c2cnc(Nc3ccc(N4CCN(C)CC4)cc3)nc2n1-c1cccc(C(C)(C)O)n1 [AZD1775] (first compound max 10 µM, partner max 1 µM) | 0.53 | 0.988 | 0.615 | 0.937 | 0.383 | 0.611 | 0.222 | 0.867 | 0.267 | 0.724 | 0.276 | 0.581 | 0.629 | 0.476 | 0.46 | 0.86 | 0.621 | 0.82 | 1 | 0.722
8 | N#Cc1cnc(Nc2cc(NC[C@H]3CNCCO3)c(C(F)(F)F)cn2)cn1 [SRA737] + CCc1c2c(nc3ccc(O)cc13)-c1cc3c(c(=O)n1C2)COC(=O)[C@]3(O)CC [SN-38] (first compound max 10 µM, 7x7, partner max 0.3 µM) | 0.866 | 0.952 | 0.923 | 0.878 | 0.38 | 0.85 | 0.138 | 0.953 | 0.46 | 0.763 | 0.63 | 0.626 | 0.758 | 0.746 | 0.73 | 0.935 | 0.849 | 0.768 | 1 | 0.787
9 | N#Cc1cnc(Nc2cc(NC[C@H]3CNCCO3)c(C(F)(F)F)cn2)cn1 [SRA737] + Nc1ccn([C@@H]2O[C@H](CO)[C@@H](O)C2(F)F)c(=O)n1 [Gemcitabine] (first compound max 10 µM, 7x7, partner max 0.3 µM) | 0.608 | 0.979 | 0.972 | 0.986 | 0.485 | 0.78 | 0.27 | 0.988 | 0.411 | 0.748 | 0.519 | 0.724 | 0.848 | 0.743 | 0.814 | 0.97 | 0.666 | 0.785 | 1 | 0.737
10 | N#Cc1cnc(Nc2cc(NC[C@H]3CNCCO3)c(C(F)(F)F)cn2)cn1 [SRA737] + O=c1[nH]cc(F)c(=O)[nH]1 [5-Fluorouracil] (first compound max 10 µM, 7x7, partner max 20 µM) | 0.382 | 0.739 | 0.226 | 0.934 | 0.234 | 0.505 | 0.147 | 0.492 | 0.164 | 0.443 | 0.21 | 0.15 | 0.402 | 0.555 | 0.314 | 0.66 | 0.208 | 0.444 | 1 | 0.513
11 | C[C@@H](c1ccc2nccn2c1)n1nnc2ncc(-c3cnn(C)c3)nc21 [Savolitinib] + CC1(C)CCC(CN2CCN(c3ccc(C(=O)NS(=O)(=O)c4ccc(NCC5CCOCC5)c([N+](=O)[O-])c4)c(Oc4cnc5[nH]ccc5c4)c3)CC2)=C(c2ccc(Cl)cc2)C1 [Venetoclax] (first compound max 1 µM, 7x7, partner max 1 µM) | 0.0888 | 0.209 | 0.142 | 0.0979 | 0.186 | 0.213 | 0.155 | 0.238 | 0.177 | 0.449 | 0.2 | 0.171 | 0.247 | 0.146 | 0.154 | 0.118 | 0.153 | 0.204 | 0.183 | 0.174
12 | C[C@@H](c1ccc2nccn2c1)n1nnc2ncc(-c3cnn(C)c3)nc21 [Savolitinib] + Cc1c2c(nn1C)CSCc1cc(n(C)n1)CSc1cc(c3ccccc3c1)OCCCc1c(C(=O)O)n(C)c3c-2c(Cl)ccc13 [AZD5991] (first compound max 1 µM, 7x7, partner max 1 µM) | 0.141 | 1 | 0.182 | 0.992 | 0.165 | 0.176 | 0.144 | 0.257 | 0.122 | 1 | 0.185 | 0.184 | 0.255 | 0.0993 | 0.225 | 0.135 | 0.453 | 0.217 | 0.502 | 0.205

From the supplement of paper PMC11061612
